Experimental data as given in patent EP0438519B1, “THERAPEUTIC PEPTIDES” (The Administrators of The Tulane Educational Fund, priority 1988, dated 1998).

Test system: bombesin-stimulated amylase secretion
Experiment: Bombesin-stimulated pancreatic amylase secretion in the rat
Assay type: in vivo

For D-Phe^6BN(6-13)methylester [I00008], the “duration of inhibition of the secretion of amylase” value (5 nM of the analog, stimulated by 0.5 nM of bombesin, after bolus injection) was 150 min and the “effect on bombesin-stimulated amylase secretion” value (result in words (Fig. 3)) was “potent antagonist”.
